Bounds are passed on as bounds.

This is an account of results in publication PMC9200803, “Design, synthesis, and biological evaluation of tetrahydroquinolinones and tetrahydroquinolines with anticancer activity” (Scientific Reports, 2022).

One experiment relates to HEK293 cells. The experiment in a line: MTT cell viability assay, HEK293. The format is cell-based, human. Particulars: Homo sapiens, HEK293, IC50 ± SD. In general terms: Tetrazolium assays rely on reduction of a dye to a coloured formazan, in cell work by metabolically active cells.
Experiment [1] concerns hMLH1-deficient (MMR–) RKO cells. Briefly: MTT cell viability assay, hMLH1-deficient (MMR–) RKO. The format is cell-based, human. An excerpt:
(§1) We further attempted to determine whether 20d-induced cancer cell death was related to the induction of ROS production in HCT-116 cells. For this purpose, we pretreated cells with N-acetyl-L-cysteine (NAC), which is a commonly used antioxidant and ROS scavenger. […] HCT-116 cell line has high-frequency microsatellite instability, which is associated with deficient DNA mismatch repair (MMR)[31]. The MMR system corrects DNA-mismatched and insertion–deletion loop bases generated during DNA replication. One of the key proteins involved in the MMR pathway is MLH1, which is mutated or epigenetically silenced in many MMR-deficient (MMR^–) cells, such as HCT-116[33]. To further determine the selectivity for MMR deficiency, we analyzed the cell viability of human MutL homologue 1 (hMLH1)-deficient (MMR^–) and hMLH1-proficient (MMR^+) RKO human colon carcinoma cell lines. The latter was established by transfecting hMLH1 cDNA into MMR^− RKO cell line[34]. In MMR^– RKO cells, the hMLH1 gene promoter was silenced transcriptionally by hypermethylation. […]
(§2) The viability of cells was determined in response to the newly synthesized compounds using the MTT (Sigma-Aldrich) assay. […] Next, the medium was removed, the formazan product formed was dissolved in 100 μl of DMSO, and the absorbance was determined at 540 nm using an ASYS UVM340 microplate reader (Biochrom Ltd.). […]

Experiment [2] deals with HCT-116 cells. The experiment in a line: Wound healing assay. The format is cell-based, human. Particulars: HCT-116, 10 and 20 µM, 30 and 36 h of treatment. How it is done: A decrease in cell–cell adhesion correlates with tumor invasion and metastasis. Migration leads to spreading and metastasis of cancer cells and is thus associated with poor prognosis of many types of cancer. Moreover, studies indicate that metastasis is the major cause of death in patients with colorectal cancer (CRC)[58]. To investigate the effect of 20d on migration, HCT-116 cells were cultured and investigated by wound healing assay. The percentage of migration was monitored over time by capturing a series of images after every 6 h up to 36 h of treatment.
The antimigratory properties of 20d were investigated in HCT-116 cell line using wound healing assay. Briefly, cells were seeded and allowed to attach to the Ibidi-silicone insert on a cover glass-bottom 24-well plate for live-cell imaging. Next, the inserts were dislodged, and subsequently, cells were washed with a fresh medium and incubated with various concentrations of 20d in an imaging chamber (cellVivo incubation system, Olympus). For monitoring the migration of cells by live-cell microscopy with time-lapse photography, images were captured every 15 min for 36 h under 10× magnification using a fluorescence microscope (IX83 Inverted Microscope, Olympus) equipped with an XC50 phase-contrast digital color camera (Olympus). The distance between gaps was measured using ImageJ software.

Experiment [3] deals with HCT-116 cells. Briefly: Colony formation (clonogenic) assay. The format is cell-based, human. To be noted: HCT-116, 24 h pretreatment, 9 days culture. The method, then: A total of 500 HCT-116 cells/well was seeded into six-well plates. After attachment, cells were pretreated with DMSO (1%) or various concentrations of 20d and 19b for 24 h. Following incubation, the medium was changed, and cells were cultured for 9 days. After culturing, cells were washed with phosphate-buffered saline (PBS), fixed with 100% methanol for 30 min, and then stained with 0.5% crystal violet for 15 min. The plates were air-dried, and visible colonies were counted using ImageJ software. The percentage viability of cells was calculated in comparison to the control.

Experiment [4] deals with hMLH1-proficient RKO cells. Briefly: ROS level, H2DCFDA probe, MMR-proficient RKO. To be noted: 1 h of exposure, vs control. The format is cell-based, human. How it is done:
Then, we confirmed whether the induction of cellular stress by 20d is related to MMR deficiency by exposing MMR-deficient and MMR-proficient cells to the compound for different times and measuring the ROS levels. Our results indicated a greater increase in the level of ROS after 1 h of exposure in 20d-treated MMR-deficient cells than in MMR-proficient cells (54.71 ± 2.70% and 22.27 ± 1.7%, respectively), in comparison to control (Fig. 7).
The […] ROS levels were determined using an H2DCFDA (2′,7′-dichlorodihydrofluorescein diacetate) probe (Thermo Fisher) following the manufacturer’s protocol. […] DMSO (1%, Merck) and 250 μM H2O2 were used as a negative and positive control, respectively. NAC (500 μM, Sigma-Aldrich) was used as an ROS scavenger to confirm the ROS activity. After treatment with 20d and 19b, cells were incubated with H2DCFDA at 37 °C for 30 min. Subsequently, cells were harvested by trypsinization, rinsed with PBS, and stained with 7-AAD (Thermo Fisher). Finally, the stained cells were analyzed by flow cytometry using a Guava easyCyte 8 cell sorter (Merck Millipore) and FlowJo v10 software.

In experiment [5] the test system is hMLH1-proficient (MMR+) RKO cells. Briefly: MTT cell viability assay, hMLH1-proficient (MMR+) RKO. The format is cell-based. To be noted: Homo sapiens, mean ± SD.
From the text: as §1, §2

For orientation: IC50 means the concentration at which inhibition is half-maximal. For `O=C(Nc1cccc(F)c1)OC1CCCc2c(-c3ccccc3)cc(=O)[nH]c21` (stereo not shown) [Compound 20d, (2-oxo-4-phenyl-5,6,7,8-tetrahydroquinolin-8-yl) N-(3-fluorophenyl)carbamate], the concentration for half-maximal inhibition (IC50) was more than 50 µM in the experiment with HEK293 cells; 1.21 ± 0.13 µM in experiment [1] (Homo sapiens, RKO, mean ± SD); 4.78 ± 0.38 µM in experiment [5]. Further, the “fold higher sensitivity of MMR– RKO vs MMR+ RKO cells” value in experiment [1] (p < 0.001) is reported as 3.95 fold. Further, the inhibition of migration in the experiment on HCT-116 cells [2] was 30–50%. For the same molecule, in the experiment with HCT-116 cells [3], the formation of colonies entry is “effectively inhibited the formation of colonies in a concentration-dependent manner”. Further, in experiment [4], the “increase in the level of ROS” value is reported as 22.27 ± 1.7%.
